Patent publication US10532048B2, “Tetrahydroisoquinolin-1-one derivative or salt thereof” (Seldar Pharma Inc., priority 2007, dated 2020)
Read-outs that look alike come from different tables or passages of the source.

Key:
BB2 receptor [1] = settings: abdominal pain model induced by large intestinal distension; cited from earlier work
BB2 receptor [2] = settings: stress-induced defecation model; cited from earlier work
BB2 receptor [3] = biological target: BB2 receptor (Homo sapiens (Human), UniProt P30550); test: BB2 receptor binding test (125I [Tyr4] bombesin, PC-3 cell membrane sample); settings: 125I [Tyr4] bombesin 0.075 nM, room temperature 2 hours, read-out: IC50 (50% binding inhibition concentration)
Method: A BB2 receptor binding test was carried out using a membrane sample prepared from a human prostate cancer-derived PC-3 cell. […] The cells detached by a trypsin treatment were added with a 50 mM Tris-HCl buffer (pH 7.4, containing 0.2 mg/ml trypsin inhibitor and 0.2 mg/ml benzamidine), and homogenized by Polytron. The cell suspension was centrifuged at 1,500 rpm for 10 minutes, and the supernatant thus obtained was subjected to 1 hour of ultracentrifugation at 37,000×g. The precipitate was suspended in the aforementioned buffer to a concentration of 0.4 mg protein/ml, and stored at −80° C.
The BB2 receptor binding test was carried out by the following method, and the receptor antagonistic activity of a compound to be tested was calculated. […] Non-specific binding was measured using 1 μM of bombesin. After completion of the incubation, the reaction solution was filtered through a Whatman GF/B filter which had been soaked in 0.5% polyethyleneimine. The radioactivity on the filter was measured using a microplate scintillation counter (Top Count, Perkin-Elmer Co., Ltd.). Further, Ex represents the number of the Example compound.

male Wistar rat = test: Restraint stress-induced defecation model; format: in vivo; settings: read-out: Inhibitory Rate (%) of number of feces excreted
Method: The compound to be tested of the present test was used by dissolving in water for injection containing 20% propylene glycol+20% Tween 80 or a 0.5% MC (methyl cellulose) solution.
The number of feces excreted during a period from the restriction commencement to 1 hour thereafter was measured. Normal group was put into a separate cage, and number of feces excreted during 1 hour was measured in the same manner.

5-HT3 receptor = 5-HT3 receptor (Homo sapiens (Human), UniProt P46098); settings: IBS patients; cited from earlier work
[4] = oral administration 1 mg/kg, 15 minutes before restraint, feces counted for 1 hour

Sequence of BB2 receptor (Homo sapiens (Human), UniProt P30550) (P30550 whole entry): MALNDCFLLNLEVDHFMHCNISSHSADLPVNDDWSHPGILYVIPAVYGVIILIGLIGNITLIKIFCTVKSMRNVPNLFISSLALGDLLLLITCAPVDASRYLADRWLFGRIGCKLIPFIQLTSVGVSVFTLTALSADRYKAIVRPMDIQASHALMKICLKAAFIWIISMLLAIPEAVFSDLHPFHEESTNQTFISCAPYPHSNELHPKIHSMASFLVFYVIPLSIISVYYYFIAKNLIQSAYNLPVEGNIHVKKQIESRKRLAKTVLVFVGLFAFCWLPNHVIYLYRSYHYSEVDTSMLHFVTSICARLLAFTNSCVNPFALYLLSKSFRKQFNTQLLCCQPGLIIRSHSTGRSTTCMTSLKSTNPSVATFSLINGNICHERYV
Sequence of 5-HT3 receptor (P46098 24-478): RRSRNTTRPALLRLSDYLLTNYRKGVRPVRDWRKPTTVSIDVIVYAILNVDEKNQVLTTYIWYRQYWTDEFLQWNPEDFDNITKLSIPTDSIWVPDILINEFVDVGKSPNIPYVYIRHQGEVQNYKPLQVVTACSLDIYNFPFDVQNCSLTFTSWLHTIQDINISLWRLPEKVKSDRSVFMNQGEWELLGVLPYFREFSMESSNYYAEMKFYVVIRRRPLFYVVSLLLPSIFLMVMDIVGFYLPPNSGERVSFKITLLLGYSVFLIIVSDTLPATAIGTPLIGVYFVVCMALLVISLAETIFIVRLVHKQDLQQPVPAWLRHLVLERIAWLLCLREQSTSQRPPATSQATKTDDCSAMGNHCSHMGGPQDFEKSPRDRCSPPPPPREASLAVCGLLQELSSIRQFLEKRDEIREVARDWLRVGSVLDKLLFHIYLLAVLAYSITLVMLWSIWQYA

Compound | IC50 (BB2 receptor [3]) | inhibition in vivo at 1 mg/kg (male Wistar rat; [4]) | also measured
RC-3095 | – | – | efficacy for abdominal symptom (abdominal muscle contraction reaction as index) (BB2 receptor [1]): effective; efficacy for abnormal bowel motility (BB2 receptor [2]): effective
CS(=O)(=O)N[C@H]1CCCC[C@@H]1N1C(=O)c2ccccc2[C@@H](C(=O)NOCc2ccc(CC(=O)O)cc2)[C@@H]1c1ccc(Cl)cc1Cl [Ex 856] | 6.8 nM | 61.4% | –
CS(=O)(=O)N[C@H]1CCCC[C@@H]1N1C(=O)c2ccccc2[C@@H](C(=O)NCCc2cccc(C(F)(F)C(=O)O)c2)[C@@H]1c1ccc(Cl)cc1Cl [Ex 712] | 6.7 nM | 55% | –
CS(=O)(=O)NC(=O)c1cccc(CCNC(=O)[C@@H]2c3ccccc3C(=O)N([C@H]3CCCC[C@@H]3NS(C)(=O)=O)[C@H]2c2ccc(Cl)cc2Cl)c1 [Ex 700] | 6.7 nM | 69.8% | –
Cc1[nH]cnc1CN1CCc2c(c3ccccc3n2C)C1=O [alosetron] | – | – | improving rate for abdominal symptoms and diarrhea (5-HT3 receptor): 40 to 60%
C[C@@H](NC(=O)[C@@H]1c2ccccc2C(=O)N([C@H]2CCCC[C@@H]2NS(C)(=O)=O)[C@H]1c1ccc(Cl)cc1Cl)c1ccccc1 [Ex 236] | 3 nM | – | –
O=C(NCCc1ccccn1)[C@@H]1c2ccccc2C(=O)N([C@H](CO)Cc2ccccc2)[C@H]1c1ccc(Cl)cc1Cl [Ex 61] | 12.8 nM | – | –
CS(=O)(=O)N[C@H]1CCCC[C@@H]1N1C(=O)c2ccccc2[C@@H](C(=O)NOCc2cccc(C(=O)O)c2)[C@@H]1c1ccc(Cl)cc1Cl [Ex 560] | 4.8 nM | 62.1% | –
CS(=O)(=O)N[C@H]1CCCC[C@@H]1N1C(=O)c2ccccc2[C@@H](C(=O)NOCc2cccc(OCCCC(=O)O)c2)[C@@H]1c1ccc(Cl)cc1Cl [Ex 709] | 8.9 nM | 41.5% | –
CS(=O)(=O)N[C@H]1CCCC[C@@H]1N1C(=O)c2ccccc2[C@@H](C(=O)NCCc2ccc(CC(=O)O)cc2)[C@@H]1c1ccc(Cl)cc1Cl [Ex 701] | 7.4 nM | 41.3% | –
CS(=O)(=O)N[C@H]1CCCC[C@@H]1N1C(=O)c2ccccc2[C@@H](C(=O)NOCc2cccc(OCC(=O)O)c2)[C@@H]1c1ccc(Cl)cc1Cl [Ex 631] | 4.5 nM | 53.8% | –
CS(=O)(=O)N[C@H]1CCCC[C@@H]1N1C(=O)c2ccccc2[C@@H](C(=O)NOCc2cc(C(=O)O)cs2)[C@@H]1c1ccc(Cl)cc1Cl [Ex 542] | 4.7 nM | – | inhibition in vivo at 1 mg/kg (male Wistar rat; 1 h): 40%
CS(=O)(=O)N[C@H]1CCCC[C@@H]1N1C(=O)c2ccccc2[C@@H](C(=O)NOCc2ccccn2)[C@@H]1c1ccc(Cl)cc1Cl [Ex 589] | 5.7 nM | 73.9% | –
